Results as given in patent US20160193179A1, “Treatment of Cardiovascular Risk in Diabetic Patients” (EVOLVA SA, priority 2012, published 2016).

Legend:
[1] = molecular target: T1, TP receptor (Homo sapiens, UniProt P21731); conditions: 0.125 to 2.5 mg/kg; cited from earlier work
T1 sequence (P21731 1-343): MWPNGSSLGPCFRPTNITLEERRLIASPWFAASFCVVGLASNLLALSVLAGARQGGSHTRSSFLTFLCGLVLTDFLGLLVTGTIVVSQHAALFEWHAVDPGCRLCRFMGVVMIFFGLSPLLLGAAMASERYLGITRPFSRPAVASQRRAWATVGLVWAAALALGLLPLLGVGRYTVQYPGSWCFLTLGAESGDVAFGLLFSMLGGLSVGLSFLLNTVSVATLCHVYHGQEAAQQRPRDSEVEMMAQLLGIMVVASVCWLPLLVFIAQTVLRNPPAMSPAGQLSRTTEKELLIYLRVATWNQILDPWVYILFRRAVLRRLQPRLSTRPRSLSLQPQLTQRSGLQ

[2] = tested on: PARP cleavage in HUVEC; experiment: PARP-1 cleavage (apoptosis) by western blot in HUVEC; type: cell-based, human
Experimental: FIGS. 3C and 3D show the effect of Compound 3 on PARP cleavage induced by TNFα in HUVEC after 6 h of incubation. C) Total protein extracts are recovered and analysed by western blot. β-actin serves as the loading control. D) Quantification of optical density of each band and expression of the ratio between the optical density of PARP cleavage and the total of PARP.
HUVEC are seeded at 187,500 cells/flask in gelatin-coated T75 in EGM. After 4 days, cell medium is replaced by EBM containing or not containing Compound 3 at different concentrations. After 1 h of preincubation, 1 ng/ml TNFα is added or is not added into the T75 flasks. 6 h after, cell media are collected and centrifuged at 500 g for 5 min to pellet and pool floating cells with adherent cells. Adherent cells are washed twice with cold PBS and are collected in 1.5 ml of PBS. Harvested cells are then centrifuged at 500 g for 5 min at 4° C. […] Protein concentration is measured using Pierce method (Pierce 660 nm protein assay, Thermoscientific, USA) with the Ionic Detergent Compatibility Reagent (Thermoscientific, USA). […] Antibody binding was analysed with the scanner Odyssey Image System (Li-COR, Biosciences, USA) and Odyssey V3.0 software. Optical density of each band is also determined by using the software.

[3] = tested on: COX-2, IL-6, IL-8, ICAM-1, VCAM-1, PTX3, MCP-1 mRNA expression in HUVEC; experiment: Real time RT-PCR of TNFα-induced mRNA expression in HUVEC; type: cell-based, human; conditions: for ICAM-1 mRNA expression induced by TNFα / PTX3 mRNA expression induced by TNFα: 1 ng/ml TNFα 6 h
Experimental: FIGS. 1 and 2A show the effects of Compound 3 on mRNA expression of genes of interest encoding inflammatory or oxidative markers. mRNA expression is evaluated by quantitative RT-PCR in HUVEC after 6 h of TNFα stimulation. Data are means±S.D. (n=3). Statistical analysis: one way ANOVA followed by Bonferroni, Versus CTL NS p>0.05, * p<0.05, ** p<0.01, *** p<0.001; Versus TNFα $ p<0.05, $$ p<0.01, $$$ p<0.001.
HUVEC are seeded at 67,500 cells/flask in gelatin-coated T25 in EGM. After 4 days, cell medium is replaced by EBM containing or not containing Compound 3 at different concentrations. After 1 h of preincubation, 1 ng/ml TNFα is added or is not into the T25 flasks. 6 h after, cell medium is discarded and cells are washed twice with PBS. Total RNA extraction is performed by using QIAGEN RNeasy mini Kit according to the protocol provided by the manufacturer (QIAGEN). RNA concentration for each sample is determined by Nanodrop Spectrophotometer ND-100 (ISOGEN, Life Science). Reverse transcription was performed using Transcriptor First Strand cDNA Synthesis Kit Roche (Roche Applied Science). Transcript levels are determined by quantitative reverse transcription polymerase chain reaction (qRT-PCR). cDNA obtained by reverse transcription of total RNA are diluted 100 times and 5 μl are mixed with 12.5 μl of Fast start Universal SYBRGreen Master (Roche), 2.5 μl MilliQ water, 2.5 μl of diluted primer forward and 2.5 μl of diluted primer reverse to have an optimal and final concentration of 300 nM or 900 nM. PCRs are carried out in a real-time PCR cycler (Applied Biosystems 7900HT Fast Real-time PCR System): a hot start at 95° C. for 5 min is followed by 40 cycles at 95° C. for 15 s and 65° C. for 1 min. Samples are compared using the relative cycle threshold (Ct) method. To normalize the load of cDNA for each sample, RPL13 is used as the endogenous standard. Primer sequences are listed below.
List of primers used in real time RT-PCR.

[4] = from 100 nM, not increased at 300 nM and 600 nM

In the case of `CC(C)(C)N.O=C(O)CC/C=C\C[C@@H]1CO[C@H](c2ccccc2Cl)O[C@@H]1c1ccccc1O` [Compound 3, tert-butylammonium (Z)-6-((2S,4S,5R)-2-(2-chlorophenyl)-4-(2-hydroxyphenyl)-1,3-dioxan-5-yl)hex-4-enoate], the “TP receptor activation in vivo” value [1] is given as “antagonize TP receptor activation in vivo”, the “induction of apoptosis (PARP cleavage) by the compound itself” value ([2]; HUVEC 6 h, without TNFα) is given as “does not induce apoptosis” and the “PARP cleavage induced by TNFα” value ([2]; HUVEC, TNFα 6 h, western blot) is given as “does not decrease”. For the same compound, the “ICAM-1 mRNA expression induced by TNFα” value ([3]; 10 nM) was “no effect”, the “PTX3 mRNA expression induced by TNFα” value ([3]; 10 nM) was “no effect” and the “ICAM-1 mRNA expression induced by TNFα” value [3, 4] was “significant decrease”. The “PTX3 mRNA expression induced by TNFα” value [3, 4] was “significant decrease” and the “mRNA expression of all genes of interest (COX-2, IL-6, IL-8, ICAM-1, VCAM-1, PTX3, MCP-1)” value ([3]; Compound 3 at the highest concentration, without TNFα) was “no effect”.
